Data from the NIST ThermoML archive (doi:10.1016/j.jct.2016.01.026).
Numbers after ± are expanded uncertainties.

Assay: osmotic coefficient (dimensionless); mn = molality of the nth substance listed, in mol/kg
Conditions: 323.15 K, 100 kPa, Liquid, Knauer K-7000 vapor pressure osmometer (VPO)

An osmotic coefficient (m1 = 0.0801) of 0.897 ± 0.013, an osmotic coefficient (m1 = 0.1937) of 0.743 ± 0.015 and an osmotic coefficient (m1 = 0.3155) of 0.645 ± 0.017 were found for CCC[N+]1(C)CCCCC1.O=S(=O)([O-])C(F)(F)F [1-methyl-1-propylpiperidinium triflate] + CC(C)O in this work. The osmotic coefficient (m1 = 0.4021) was 0.587 ± 0.019, the osmotic coefficient (m1 = 0.5062) was 0.545 ± 0.02 and the osmotic coefficient (m1 = 0.5964) was 0.516 ± 0.021. It also gave an osmotic coefficient (m1 = 0.7001) of 0.491 ± 0.022, an osmotic coefficient (m1 = 0.7943) of 0.466 ± 0.022 and an osmotic coefficient (m1 = 0.9894) of 0.443 ± 0.023. For the same compound, the osmotic coefficient (m1 = 1.268) was 0.422 ± 0.024.
An osmotic coefficient (m1 = 0.0525) of 0.851 ± 0.015, an osmotic coefficient (m1 = 0.081) of 0.769 ± 0.016 and an osmotic coefficient (m1 = 0.0996) of 0.701 ± 0.017 were found for CCC[N+]1(C)CCCCC1.O=S(=O)([O-])C(F)(F)F [1-methyl-1-propylpiperidinium triflate] + CCC(C)O in this work. For the same compound, the osmotic coefficient (m1 = 0.1561) was 0.608 ± 0.019, the osmotic coefficient (m1 = 0.1983) was 0.572 ± 0.019 and the osmotic coefficient (m1 = 0.2451) was 0.528 ± 0.021. For the same compound, the osmotic coefficient (m1 = 0.304) was 0.498 ± 0.021, the osmotic coefficient (m1 = 0.3569) was 0.477 ± 0.022 and the osmotic coefficient (m1 = 0.4029) was 0.457 ± 0.023. It also gave an osmotic coefficient (m1 = 0.498) of 0.432 ± 0.023, an osmotic coefficient (m1 = 0.5936) of 0.419 ± 0.024 and an osmotic coefficient (m1 = 0.7108) of 0.405 ± 0.024.
An osmotic coefficient (m1 = 0.0415) of 0.757 ± 0.023, an osmotic coefficient (m1 = 0.0616) of 0.593 ± 0.022 and an osmotic coefficient (m1 = 0.0823) of 0.542 ± 0.021 were found for CCC[N+]1(C)CCCCC1.O=S(=O)([O-])C(F)(F)F [1-methyl-1-propylpiperidinium triflate] + CCCCCO in this work. It also gave an osmotic coefficient (m1 = 0.1025) of 0.521 ± 0.021, an osmotic coefficient (m1 = 0.1211) of 0.502 ± 0.021 and an osmotic coefficient (m1 = 0.1427) of 0.48 ± 0.022. It also gave an osmotic coefficient (m1 = 0.1632) of 0.472 ± 0.022, an osmotic coefficient (m1 = 0.1816) of 0.465 ± 0.022 and an osmotic coefficient (m1 = 0.2018) of 0.451 ± 0.023. The osmotic coefficient (m1 = 0.2209) was 0.441 ± 0.023, the osmotic coefficient (m1 = 0.2407) was 0.431 ± 0.023 and the osmotic coefficient (m1 = 0.2643) was 0.418 ± 0.024.
An osmotic coefficient (m1 = 0.053) of 0.781 ± 0.016, an osmotic coefficient (m1 = 0.0791) of 0.706 ± 0.017 and an osmotic coefficient (m1 = 0.0996) of 0.657 ± 0.017 were found for CCC[N+]1(C)CCCCC1.O=S(=O)([O-])C(F)(F)F [1-methyl-1-propylpiperidinium triflate] + CCCCO in this work. It also gave an osmotic coefficient (m1 = 0.1455) of 0.604 ± 0.019, an osmotic coefficient (m1 = 0.2006) of 0.559 ± 0.02 and an osmotic coefficient (m1 = 0.25) of 0.519 ± 0.021. For the same compound, the osmotic coefficient (m1 = 0.3019) was 0.491 ± 0.022, the osmotic coefficient (m1 = 0.355) was 0.467 ± 0.022 and the osmotic coefficient (m1 = 0.4011) was 0.453 ± 0.023. It also gave an osmotic coefficient (m1 = 0.4998) of 0.417 ± 0.024, an osmotic coefficient (m1 = 0.5953) of 0.403 ± 0.024 and an osmotic coefficient (m1 = 0.7001) of 0.387 ± 0.025. The osmotic coefficient (m1 = 0.78) was 0.379 ± 0.025.
An osmotic coefficient (m1 = 0.0866) of 0.825 ± 0.015, an osmotic coefficient (m1 = 0.1046) of 0.769 ± 0.016 and an osmotic coefficient (m1 = 0.1966) of 0.661 ± 0.017 were found for CCC[N+]1(C)CCCCC1.O=S(=O)([O-])C(F)(F)F [1-methyl-1-propylpiperidinium triflate] + CCCO in this work. It also gave an osmotic coefficient (m1 = 0.2936) of 0.585 ± 0.019, an osmotic coefficient (m1 = 0.3928) of 0.521 ± 0.021 and an osmotic coefficient (m1 = 0.5005) of 0.483 ± 0.022. For the same compound, the osmotic coefficient (m1 = 0.6023) was 0.468 ± 0.022, the osmotic coefficient (m1 = 0.7009) was 0.452 ± 0.023 and the osmotic coefficient (m1 = 0.8047) was 0.438 ± 0.023. The osmotic coefficient (m1 = 1.008) was 0.418 ± 0.024, the osmotic coefficient (m1 = 1.195) was 0.398 ± 0.024 and the osmotic coefficient (m1 = 1.422) was 0.379 ± 0.025.
